Activity calls are given as the source filed them. How the calls were made is not given here.

The experiment concerns the target E3 ubiquitin-protein ligase SIAH1 (Homo sapiens) (UniProt Q8IUQ4). Briefly: inhibitors of Siah-1 ligand interaction – biochemical, TR-FRET, dose response (AID 2141). To be noted: TR-FRET biochemical assay, Siah-1 binding. On the technique in general: In TR-FRET formats the signal depends on donor and acceptor labels being close together.
The IC50 is the concentration that gives 50% inhibition. As to `CCOC(=O)c1c(C)[nH]c2c1-c1ccccc1C(=O)C2=O`, the IC50 is > 200 µM (inactive).
For the compound `CN(C)CCOC(=O)CCc1ccccc1`, the IC50 was > 200 µM (inactive).
Then `O=C(NCc1c(F)cccc1F)c1cc(COc2c(F)cccc2F)on1`, with > 200 µM (inactive); and `O=C(O)CCCNc1cc(N2CCN(C(=O)c3ccco3)CC2)c2noc3c2c1C(=O)c1ccccc1-3`, with 5.41 µM; and `CN(C)c1cccc2c(C=C(C#N)C#N)ccc(N(C)C)c12`, with “inactive”.
Regarding `CCCCNc1nnc(Cc2ccc(Cl)cc2)c(=O)[nH]1`, the IC50 entry is “inactive”.
Then `CCCCn1c(NS(=O)(=O)c2ccc(C)cc2)c(S(=O)(=O)c2ccccc2)c2nc3ccccc3nc21`, with 3.41 µM; and `Cc1ccc(C(=O)NC2CC3CCCC(C2)N3C(=O)NC2CCCCC2)cc1` (centres undefined), with > 200 µM (inactive).
As for `CC12CCC(C(=O)NCc3ccc(Cl)cc3)(OC1=O)C2(C)C` (centres undefined), the figure is > 200 µM (inactive); as for `Cc1cc(Cl)ccc1NC(=O)CN1CCC(C(O)(c2ccccc2)c2ccccc2)CC1`, > 200 µM (inactive).
Then `Nc1ccc(O)c2c1C(=O)c1ccccc1C2=O`, with under 1.56 µM; and `CCOc1ccccc1CNc1ccc(O)cc1`, with 5.11 µM.
In the case of `O=C(/C=C/c1ccco1)OCc1nnc(-c2ccccc2)o1`, the IC50 was 4.37 µM.
Then `O=C(Nc1cccc(Oc2ccc(C(=O)O)c(C(=O)O)c2)c1)c1ccc(-c2ccccc2)cc1`, with 11.6 µM.
On to `NS(=O)(=O)c1ccc(NS(=O)(=O)c2ccc(NC(=O)c3ccc(-c4ccccc4)cc3)cc2)cc1`, for which the IC50 is under 1.56 µM.
Then `CC1=C(C#N)c2nc(N)c(C#N)c(C)c2/C1=C\c1ccc(-c2ccccc2C(=O)O)o1`, with > 200 µM (inactive); and `O=S(=O)(Nc1c(S(=O)(=O)c2ccccc2)c2nc3ccccc3nc2n1C1CCCCC1)c1ccccc1`, with 2.09 µM.
Then `CC1(C)Cc2c(sc(/N=C/N3CCCCCC3)c2C#N)C(C)(C)N1`, with > 200 µM (inactive); and `CC[n+]1c(/C=C/N(C)c2ccccc2)sc2ccc(Cl)cc21`, with > 200 µM (inactive); and `Cc1cc(C)n(-c2ccc(Cl)c(C(=O)Nc3cc(C(F)(F)F)ccc3Cl)n2)n1`, with > 200 µM (inactive).
`COc1ccc(N=C2NC(=O)S/C2=C\c2ccc(N(C)C)cc2)cc1`: the IC50 was > 200 µM (inactive).
Take `C=CCc1cccc2cc(C(=O)Nc3ccc(CC(=O)O)cc3)c(=O)oc12`: the IC50 was 9.1 µM.
Then `CC1CCN(S(=O)(=O)c2ccc3c(c2)c(=O)c(C(=O)NCc2ccccc2Cl)cn3C)CC1`, with > 200 µM (inactive); and `COc1ccc(CCNC(=O)CCC(=O)N2CCOc3ccc(C)cc32)cc1OC`, with > 200 µM (inactive).
Then `CC1CCCCC1NC(=O)CCS(=O)(=O)c1ccc2c(c1)NC(=O)CO2` (centres undefined), with > 200 µM (inactive); and `O=C(Nc1ccc(Cl)cc1)OCc1cn(-c2ccccc2)nn1`, with > 200 µM (inactive).
As for `COCCCn1c(N)c(C(=O)NCc2ccco2)c2nc3ccccc3nc21`, the figure is 2.31 µM; as for `O=C(Nc1ccc(Oc2ccsc2C(=O)O)cc1)c1ccccc1F`, “inactive”; as for `CCN(CC)c1ccc(C=N/C(C#N)=C(\N)C#N)cc1`, > 200 µM (inactive).
Regarding `O=S(=O)(Nc1nc2ccccc2nc1Nc1ccc(N2CCOCC2)cc1)c1cc(Cl)ccc1Cl`, the IC50 was > 200 µM (inactive).
As for `COc1cccc(CCC(=O)N(C)C2CCCN(Cc3ccccc3F)C2)c1` (centres undefined), the figure is > 200 µM (inactive); as for `CCOC(=O)C1(C)C=C(Nc2ccc(O)cc2)C(=O)N1c1ccc(O)cc1` (centres undefined), “inactive”.
Then `N#CC1C=Cc2ccccc2N1C(=O)c1ccccc1` (centres undefined), with > 200 µM (inactive); and `COc1ccc(CNC(=S)Nc2cc(OC)ccc2OC)cc1`, with > 200 µM (inactive).
Then `Cc1ccc(CNc2ccc(O)cc2)cc1`, with 4.51 µM; and `CC(C)COc1ccc(-c2nn(-c3ccccc3)cc2/C=C2/SC(=S)N(CC(=O)O)C2=O)cc1`, with 3.91 µM; and `Cc1ccc(S(=O)(=O)N2CCC(=O)N(C(COCc3cccc(C)c3)Cc3ccccc3)CC2)cc1` (centres undefined), with > 200 µM (inactive).
Take `CCOc1cc(/C=C(\C#N)C(=O)Nc2ccccc2C(=O)O)ccc1OC(=O)c1ccc(C)cc1`: the IC50 is > 200 µM (inactive).
As for `COC/C=C/C1=CC2=CC(=O)C(C)(OC(=O)c3ccco3)C(=O)C2=CO1` (centres undefined), the figure is 5.94 µM; as for `Cc1ccc2c(c1)N(CC(=O)NCCc1ccc(Cl)cc1)C(=O)c1cccnc1O2`, > 200 µM (inactive).
In the case of `O=C(Nc1ccccc1N1CCCCC1)c1ccc(-c2cccc(Cl)c2)o1`, the IC50 was > 200 µM (inactive).
`O=C(CC1Nc2cccc3cccc(c23)NC1=O)Nc1ccccc1` (centres undefined): the IC50 was 6.36 µM.
Then `Cc1ccccc1NC(=O)CN1C(=O)N/C(=C\c2ccccc2OCc2ccc(C(=O)O)cc2)C1=O`, with 5.04 µM; and `CN(Cc1c(C(=O)N/N=C/c2ccc(F)cc2)nnn1-c1nonc1N)C1CCCCC1`, with > 200 µM (inactive); and `O=c1ccc2c(-c3ccccc3)c3ccc(O)cc3oc-2c1`, with > 200 µM (inactive).
`C[N+]1(CCNC(=O)/C=N/O)CCCCC1`: the IC50 result is “inactive”.
Then `COC(=O)C1CC(=O)N(c2ccc(OCc3ccccc3Cl)cc2)C1` (centres undefined), with > 200 µM (inactive).
In the case of `COC(=O)c1cccc(Cn2c(Cl)c(/C=N/NC(=O)c3ccccc3Cl)sc2=O)c1`, the IC50 was 19 µM.
Then `O=C1C=C(NCc2ccccc2)c2ccccc2C1=O`, with 15.6 µM.
Then `COC(=O)C1C=C2c3cccc4[nH]cc(c34)CC2N(C)C1` (centres undefined), with 1.85 µM; and `CSc1n[nH]c(NCc2ccc(Cl)cc2)n1`, with > 200 µM (inactive).
Then `C[C@]12CCC3C(CC=C4C[C@@H](O)CC[C@@]43C)C1CCC2[C@]1(C)CCC(=O)O1` (some centres undefined), with > 200 µM (inactive); and `CCCCn1c(NS(=O)(=O)c2ccccc2)c(C(=O)OCC)c2nc3ccccc3nc21`, with 2.16 µM; and `COc1cccc2cc(C(=O)N3CCc4ccccc43)c(=O)oc12`, with > 200 µM (inactive).
As to `O=C(CCn1ccc2ccccc21)NC1CCCc2ccccc21` (centres undefined), the IC50 was > 200 µM (inactive).
Then `CC(=O)c1ccc(NC(=O)CC2Nc3cccc4cccc(c34)NC2=O)cc1` (centres undefined), with 8.51 µM; and `COc1cc(CC(=O)NCc2ccc3c(c2)OCO3)cc(OC)c1OC`, with “inactive”; and `CC(NC(=O)Nc1ccc(O)cc1)(C(F)(F)F)C(F)(F)F`, with “inactive”.
As for `CSc1ccccc1C(=O)NC(C)c1ccc(-n2ccnc2)cc1` (centres undefined), the entry is “inactive”; as for `Cc1ccc(C(=O)COc2ccccc2C(=O)Nc2ccccc2)cc1`, > 200 µM (inactive); as for `O=C(Nc1nc(-c2cc3ccccc3oc2=O)cs1)c1ccco1`, 2.39 µM.
Then `COC(=O)c1cc(NC(=O)c2ccccc2)c(=O)oc1/C=C/Nc1ccc(Oc2ccccc2)cc1`, with > 200 µM (inactive); and `Cc1ccccc1-c1nc2c3ccccc3nc(=S)n2[nH]1`, with > 200 µM (inactive).
Regarding `CC(C)(C)c1ccc(C(CC(=O)O)NC(=O)Cc2ccc(F)cc2)cc1` (centres undefined), the IC50 was 4.55 µM.
Then `CN1C(=O)NC(c2ccccc2[N+](=O)[O-])C2=C1CCCC2=O` (centres undefined), with > 200 µM (inactive).
Then `O=C(Cn1cnc2scc(-c3ccccc3)c2c1=O)NCc1ccco1`, with 7.29 µM; and `O=S(=O)(Nc1cc2nc3ccccc3nc2n1Cc1ccccc1)c1ccc(Cl)cc1`, with 6.05 µM.
As for `CCn1c(O)c(C=Nc2ccc(N3CCOCC3)cc2)c(=O)n(CC)c1=S`, the figure is > 200 µM (inactive).
As to `Nc1c(C(=O)NCc2ccco2)c2nc3ccccc3nc2n1CCc1ccccc1`, the IC50 was 1.77 µM.
As for `CCCCN(Cc1cc2cc(OC)ccc2[nH]c1=O)S(=O)(=O)c1ccc(C)cc1`, the figure is 17.2 µM; as for `O=C(CCN1CCN(Cc2ccccc2)CC1)Nc1cccc(Cl)c1`, > 200 µM (inactive); as for `CC(=O)c1ccc(S(=O)(=O)Nc2ccc(-c3ccc4nnc(C)n4n3)cc2)cc1`, 9.93 µM.
Take `O=C(O)c1ccc(/C=N/NC(=O)c2ccc(CN3c4cccc5cccc(c45)S3(=O)=O)cc2)cc1`: the IC50 was 18.3 µM.
As for `S=c1[nH]nc(Cc2cccc3ccccc23)n1-c1ccccc1`, the figure is > 200 µM (inactive); as for `COc1cc(/C=C(\C#N)c2nc3ccccc3[nH]2)ccc1OC(=O)c1ccco1`, 6.22 µM; as for `Cc1cc(C)nc(N=Nc2c(O)n(Cc3ccc(Cl)cc3)c3ccccc23)n1`, > 200 µM (inactive).
As for `C=CCn1c(NS(=O)(=O)c2ccccc2)c(S(=O)(=O)c2ccc(C)cc2)c2nc3ccccc3nc21`, the figure is under 1.56 µM.
In the case of `CCc1nnc(NS(=O)(=O)c2ccc(NC(=S)NC(=O)/C=C/c3ccc(C(C)C)cc3)cc2)s1`, the IC50 is 8.87 µM.
As for `COc1cc(/C=C2/SC(=S)N(Cc3ccccc3)C2=O)cc(Cl)c1O`, the figure is > 200 µM (inactive); as for `CCC(C)N1C(=O)/C(=C/c2c(NCCCOC(C)C)nc3c(C)cccn3c2=O)SC1=S` (centres undefined), > 200 µM (inactive); as for `O=C(CSc1ccc(Br)c2cccc(Cl)c12)Nc1ccc(S(=O)(=O)Nc2nccs2)cc1`, > 200 µM (inactive).
As for `CCN(CC)CCOC(=O)c1ccc(N/C=C(/C#N)c2nc(-c3cc4ccccc4oc3=O)cs2)cc1`, the figure is > 200 µM (inactive).
As for `Oc1ccc(N=Cc2ccc(OCc3ccccc3)cc2)cc1`, the figure is 3.74 µM.
Turning to `O=C(NCc1ccc(Cl)cc1)c1cc(-c2cccs2)on1`, the concentration for half-maximal inhibition (IC50) was 6.3 µM.
As for `Oc1ccc(N=Cc2sc3ccccc3c2Cl)cc1`, the figure is 14.9 µM; as for `O=C(O)c1cc(Cl)c(Cl)cc1C(=O)Nc1cccc2cccnc12`, 7.1 µM; as for `CC(C)(C)c1cc(-c2csc(Nc3ccccc3)[n+]2Cc2ccc(C(=O)O)cc2)cc(C(C)(C)C)c1O`, 6.69 µM.
Then `Oc1c(Br)cc(Br)cc1CNc1ccc(F)cc1`, with “inactive”; and `O=C(N/N=C/c1cccc(Br)c1)c1ccc(Br)cc1`, with 2.54 µM.
